Results on two substances are retold here after patent US20210393745A1, “OLIGOMER EXTENDED INSULIN-FC CONJUGATES AND THEIR MEDICAL USE” (Novo Nordisk A/S, priority 2018, published 2021).

Data set [1] concerns streptozotocin treated Sprague-Dawley rats. As to the kind of experiment: In vivo PD, blood glucose lowering in streptozotocin treated rats. Also on record: species or system Sprague-Dawley rat. The conditions noted are these: s.c. 30 nmol/kg, baseline corrected BG up to 10 days, difference from vehicle, mean. The procedure: Insulin-Fc conjugates were tested in vivo by subcutaneous (s.c.) administration to normal and streptozotocin (STZ) treated male Sprague-Dawley (SD) rats.
The rats were dosed s.c. in the neck region with a dose of 30 nmol/kg of the insulin-Fc conjugates. Blood samples for blood glucose and plasma insulin analysis were collected from the tongue vein up to 10 days post dosing. The insulin-Fc concentrations were measured by immuno-assay (LLOQ=1000 pM) and the resulting half-life values after s.c. dosing are shown in Table 4. The PK profiles for normal rats are shown in FIG. 3 and for streptozotocin treated rats in FIG. 6. Blood glucose (BG) was measured using Biosen S Line (EKF) and the BG and baseline corrected BG profiles for normal rats are shown in FIGS. 1 and 2 and for streptozotocin treated rats in FIGS. 4 and 5 respectively.

A short description of data set [2]: Stability study: high-molecular weight products by native size-exclusion chromatography. Type of data set: physicochemical. As to conditions: HMWP %(5° C.) − HMWP %(30° C.), 30 μM, pH 7.4. The procedure: Samples for stability studies were prepared by weighing out 8-10 mg freeze-dried material. The freeze-dried material was solubilized to […] in a premade solution A (5 mM phophate (pH 7.4), 140 mM NaCl and 70 ppm polysorbate 20). Protein concentration was determined using absorbance at 280 nm using a Nanodrop 2000 (Thermo Fisher Scientific Inc.) and theoretical extinction coefficients. Dilution into solution A was done to reach a final concentration of 30 μM.
Native size-exclusion chromatography was performed on a High-Performance Liquid Chromatography system (Waters Alliance) equipped with a UV/Vis detector (Waters 2489 UV/Vis detector). A Waters XBridge BEH 200 Å, 3.5 μm column with dimensions 7.8×300 mm, kept at 30° C., was used. The mobile phase was 50 mM sodium phosphate (pH 7.0), 50 mM NaCl, 5% isopropyl alcohol (v/v). Injection volume was 5 μL. The flow rate was kept at 0.5 mL/min. Peaks were detected using absorbance at 215 nm and data processing is performed with the EMPOWER 3 software from Waters. Samples were analysed for high molecular weight products (HMWP) by relating the total integral of material eluting before main peak with main monomeric peak. In all chromatograms, full baseline separation was observed. […]
Stability of Fc-insulin analogues was evaluated by comparing purity from anion exchange chromatography and formation of high molecular weight products (HMWP) at 5° C. […]
(Size exclusion chromatography separates by hydrodynamic size, large species first.)

“(A14E, A21G, A22(GQEP)11, A66G, A67Q, A68E, A69K^, A70P, B16H, B25H, B29R, desB30 human insulin)/(226A, 227G, 228P, 234A, 235K, 297E, 315Q, 384Q, des447 hIgG4-Fc(226-447))3,5-bis[(2-acetyl)amino]benzoyl Conjugate [Example 5.2]”: in data set [1], the “AOCBG STZ rat” value was 4106 mM·h. The “Δ HMWP %” value in data set [2] is on record as −0.63%.

In the case of “(A14E, A21G, A22(GQEP)12, A70K^, A71P, B25H, B29R, desB30 human insulin)/(226A, 227G, 228P, 234A, 235K, 297E, 315Q, 384Q, des447 hIgG4-Fc(226-447))3,5-bis[(2-acetyl)amino]benzoyl Conjugate [Example 5.1]”, the “AOCBG STZ rat” value in data set [1] stood at 3181 mM·h. In addition, the “Δ HMWP %” value in data set [2] is recorded as −2.17%.
